Measurements taken from US20020127182A1, “Paramagnetic metal ion-based macrocylic magnetization transfer contrast agents and method of use” (Board of Regents, The University of Texas System, priority 2000, published 2002).

What was measured:
Type in all cases: physicochemical
[1] = Bound water lifetime τM^298 of Ln(1)^3+ complexes by fitting temperature dependent 17O NMR bound water line widths; exchange limit regime Δω•τM calculated; settings: for τM (bound water lifetime): Ln(1)^3+ complexes, 298 K
Experimental: A first experiment, examined the life times at 298° K, τM^298, of water molecules bound to various lanthanide-macrocylic complexes of the present invention, and having the general formula, Ln(1)^3+, where the four pendent arms R, R′, R″ and R″′ are all ethyl-acetamidoacetate (i.e., LnDOTA-4AmCE^3+), as depicted below: [drawing 4]
(§1) Individual τM^298 values were obtained by fitting the temperature dependent ^17O NMR bound water line widths according to standard exchange theory. […] Because the bulk water ^17O resonance of Yb(1) solution was relatively narrow at all temperatures, no attempt was made to determine τM^298 for this complex based on the ^17O NMR line width data from bulk water. However, a fit to the bound-water ^1H NMR line width gave a τM^298 of 5.8 μs for Yb(1), consistent with the trend shown in FIG. 3. Moreover, ^1H NMR line width fitting gave very similar results for those systems for which the bound water is directly observable.
(§2) As further illustrated in Table 1, the proton chemical shifts of bound water in these lanthanide-macrocylic complexes, δ, relative to bulk water, at 0 ppm are generally highly shifted, either more than 6 ppm downfield or upfield (i.e., ±6 ppm or more), depending upon the properties of the central lanthanide ions. At 1.5 Tesla (T), a magnetic field strength presently used by many commercial MRI scanners, the exchange limit regimes, Δω•τM, of Eu(1)^3+, Tb(1)^3+, Dy(1)^3+, and Ho(1)^3+ are all greater than 1. At higher fields, however, such as 4.7 T and 11.75 T, more lanthanide complexes have exchange limit regimes greater than 1, with Δω•τM increasing as field strength increases. Therefore, favorable MT contrast effects are available for a broad range of lanthanide-macrocylic complexes over a broad range of magnetic field strengths.

[2] = Proton chemical shift of bound water of Ln(1)^3+ complexes relative to bulk water (1H NMR); settings: relative to bulk water at 0 ppm
Description: as §2, with “strengths. […]” for “strengths.”

[3] = MT MR imaging of vial phantom with Ln(1)^3+ complexes at 4.7 T; settings: saturating bound water, 62.5 mM, neutral pH
Experimental: A third series of experiments was performed to examine the ability of lanthanide-macrocylic complexes of the general formula Ln(1)^3+ to enhance MRI contrast by MT. […] The inner vial contains 62.5 mM Eu(1)^3+ or Nd(1)^3+ at neutral pH, while the outer vial is pure water. T1-weighted spin-echo images (TR/TE=500/18 ms, 256×256 data matrix) were obtained at about 22° C. and a field strength of 4.7 T. MT was achieved by applying RF irradiation for 1 s, with a power of 16 db by using a 2.5 cm surface coil. […] The inner vial contains 62.5 mM Nd(1)^3+ at neutral pH, while the outer vial is pure water. The irradiation duration time was 2 s, with a power of 41 db by using a 2.5 cm surface coil.
These levels of contrast are much better than expected for diamagnetic CAs where the resonance signal of the NH or OH group undergoing chemical exchange is only a few ppm away from the resonance signal of bulk water.

[4] = MT profiles (Z-profiles, CEST profiles) of Ln(1)^3+ complexes at 4.7 T; settings: for bound water position at which saturating RF pulse is directed: bulk water at 0 ppm, aqueous 62.5 mM, neutral pH, about 22° C.
Experimental: In a second experiment, MT profiles, also known as Z-profiles or CEST profiles, were obtained for lanthanide-macrocylic complexes of the general formula Ln(1)^3+. FIGS. 4-7 show representative spectra in the absence of saturation (bulk water peak at 0 ppm truncated to make the bound water peaks more visible) and MT profiles for Eu(1)^3+, Pr(1)^3+, Nd(1)^3+ and Yb(1)^3+ complexes, respectively, all measured at 4.7 T. All experiments were conducted using aqueous 62.5 mM Ln(1)^3+ adjusted to neutral pH and about 22° C., using an saturation duration time of 1 s, RF power of 16 db, and a 2.5 cm surface coil. […] Among these three complexes, Eu(1)^3+, shown in FIG. 4, had the greatest effect when the saturating pulse was centered at about 50 ppm (arrow): about a 60% decrease in the magnetization of bulk water, Ms, as compared to the magnetization of bulk water in the absence of a saturating pulse, Mo. Importantly, as indicated by a Ms/Mo of about 100%, when the counter-position (i.e., −50 ppm) was saturated, there was no distortion in the bulk water signal. Of course when the saturation pulse is directed to 0 ppm (arrow) there is no signal and therefore Ms/Mo is about 0%.

[5] = MT profiles of Eu(2)^- complex versus pH and saturation power; settings: saturating bound water at about 57 ppm; 62.5 mM, 2 s, 41 db
Experimental: In a seventh experiment, MT profiles were obtained for 62.5 mM aqueous solutions of the Eu(2)^− lanthanide-macrocylic complex. A saturating RF pulse of 2 s at the resonance frequency of bound water or amide protons, with a power of 41 db, was applied to a 3.5 cm volume coil. […] The same set of data was plotted versus the bound water lifetime, τM^298, or the exchange limiting regime, Δω•τM, as shown in FIG. 17. The largest MT occurs for a Δω•τM ranging from about 12 to about 17, and optimally about 15.

[6] = pH dependence of bound water and amide proton lifetimes τM^298 of Eu(2)^- by variable temperature 1H NMR line width fitting
Experimental: In a sixth series of experiments, the pH dependence of the bound water (FIG. 14) and the amide (FIG. 15) protons lifetimes, τM^298, were determined by variable temperature ^1H NMR line width fitting. The chemically exchangeable bound water and amide protons have different dependence on pH. For bound water protons, the slowest exchange, i.e., largest τM^298, takes place at pH 7 (FIG. 14). Moreover, the pH dependence may be divided into two linear ranges: an acidic range where τM^298=68.6*pH−172.5; and a basic range where τM^298=−128.2*pH+1212.6, respectively. For the amide protons, the slowest exchange is at pH 5.5 (FIG. 15).

[7] = 500 MHz 1H NMR spectrum of Eu(2)^- complex, exchangeable sites; settings: aqueous, pH 7.4, 25° C.
Description: Two sites in the complex (denoted by the symbols *) are chemically exchangeable with bulk water (denoted by the symbol ? ): one is from Eu^3+-bound water at about 57 ppm, and another is from four equivalent amide protons on the pendent arms at about −6 ppm.

[8] = 1H NMR spectra of Ln(9)^3+ complexes, exchangeable amide protons
Description: For certain Ln(9)^3+ complexes, for example, with Ln equal to Yb or Tm, the bound water molecules are ^1H NMR invisible probably due to the fast exchange between the bound water and the bulk water. […] Unfortunately, the NMR signal was invisible, probably due to its fast exchange with the bulk water. However, the eight exchangeable amide protons present as two resonance peaks with equivalent intensity, at −14.5 (Ha) and −17.7 (Hb) ppm, respectively, are visible.

[9] = τM^298 from fit to bound-water 1H NMR line width
Description: as §1

SMILES | Δω●τM (exchange limit regime) ([1]; 4.7 T) | Δω●τM (exchange limit regime) ([1]; 11.75 T) | τM (bound water lifetime) [1] [μs] | δ, proton chemical shift of bound water [2] [ppm] | Δω●τM (exchange limit regime) ([1]; 1.5 T) | also measured
CCOC(=O)CNC(=O)CN1CCN(CC(=O)NCC(=O)OCC)CCN(CC(=O)NCC(=O)OCC)CCN(CC(=O)NCC(=O)OCC)CC1.[Dy+3] [Dy(1)^3+] | 15.4 | 38.5 | 17 | −720 | – | Δω●τM (exchange limit regime) ([1]; 1.5 T, listed as Dy^3+): 4.9
CCOC(=O)CNC(=O)CN1CCN(CC(=O)NCC(=O)OCC)CCN(CC(=O)NCC(=O)OCC)CCN(CC(=O)NCC(=O)OCC)CC1.[Er+3] [Er(1)^3+] | 2.3 | 5.7 | 9 | 200 | 0.7 | –
CCOC(=O)CNC(=O)CN1CCN(CC(=O)NCC(=O)OCC)CCN(CC(=O)NCC(=O)OCC)CCN(CC(=O)NCC(=O)OCC)CC1.[Eu+3] [Eu(1)^3+] | 24.0 | 60.0 | 382 | 50 | – | Δω●τM (exchange limit regime) ([1]; 1.5 T, listed as Eu^3+): 7.7; decrease in the bulk water signal in the inner vials (MT images) [3]: ~80%; bound water position at which saturating RF pulse is directed [4]: +50 ppm; decrease in the magnetization of bulk water, Ms, compared to Mo ([4]; saturating pulse at about 50 ppm, 62.5 mM, 1 s, 16 db): ~60%; Ms/Mo when counter-position saturated ([4]; saturation at −50 ppm, 62.5 mM): about 100%
O=C([O-])CNC(=O)CN1CCN(CC(=O)NCC(=O)[O-])CCN(CC(=O)NCC(=O)[O-])CCN(CC(=O)NCC(=O)[O-])CC1.[Eu+3] [Eu(2)^−, LnDOTA-4AmC^−] | – | – | – | – | – | optimal Δω•τM for largest MT [5]: about 15; pH of slowest exchange (largest τM^298), bound water protons [6]: 7; pH of slowest exchange, amide protons [6]: 5.5; exchange limiting regimes (Δω•τM), bound water and amide protons ([6]; magnetic field strength of 4.7): > 1; chemical shift of Eu^3+-bound water [7]: about 57 ppm; chemical shift of four equivalent amide protons on the pendent arms [7]: about −6 ppm
CCOC(=O)CNC(=O)CN1CCN(CC(=O)NCC(=O)OCC)CCN(CC(=O)NCC(=O)OCC)CCN(CC(=O)NCC(=O)OCC)CC1.[Ho+3] [Ho(1)^3+] | 8.6 | 21.5 | 19 | −360 | – | Δω●τM (exchange limit regime) ([1]; 1.5 T, listed as Ho^3+): 2.8
CCOC(=O)CNC(=O)CN1CCN(CC(=O)NCC(=O)OCC)CCN(CC(=O)NCC(=O)OCC)CCN(CC(=O)NCC(=O)OCC)CC1.[Nd+3] [Nd(1)^3+] | 3.2 | 8.0 | 80 | −32 | 1.0 | decrease in the bulk water signal in the inner vials (MT images) [3]: ~80%
CCOC(=O)CNC(=O)CN1CCN(CC(=O)NCC(=O)OCC)CCN(CC(=O)NCC(=O)OCC)CCN(CC(=O)NCC(=O)OCC)CC1.[Pr+3] [Pr(1)^3+] | 1.5 | 3.8 | 20 | −60 | 0.5 | bound water position at which saturating RF pulse is directed [4]: −45 ppm
CCOC(=O)CNC(=O)CN1CCN(CC(=O)NCC(=O)OCC)CCN(CC(=O)NCC(=O)OCC)CCN(CC(=O)NCC(=O)OCC)CC1.[Sm+3] [Sm(1)^3+] | 1.6 | 4.0 | 320 | −4 | 0.5 | –
CCOC(=O)CNC(=O)CN1CCN(CC(=O)NCC(=O)OCC)CCN(CC(=O)NCC(=O)OCC)CCN(CC(=O)NCC(=O)OCC)CC1.[Tb+3] [Tb(1)^3+] | 23.4 | 58.5 | 31 | −600 | – | Δω●τM (exchange limit regime) ([1]; 1.5 T, listed as Tb^3+): 7.5
CCOC(=O)CNC(=O)CN1CCN(CC(=O)NCC(=O)OCC)CCN(CC(=O)NCC(=O)OCC)CCN(CC(=O)NCC(=O)OCC)CC1.[Tm+3] [Tm(1)^3+] | 1.9 | 4.7 | 3 | 500 | 0.6 | –
NC(=O)CN1CCN(CC(N)=O)CCN(CC(N)=O)CCN(CC(N)=O)CC1.[Tm+3] [Tm(9)^3+] | – | – | – | – | – | chemical shift of amide protons, first set (Ha) [8]: −42 ppm; chemical shift of amide protons, second set (Hb) [8]: −52 ppm
CCOC(=O)CNC(=O)CN1CCN(CC(=O)NCC(=O)OCC)CCN(CC(=O)NCC(=O)OCC)CCN(CC(=O)NCC(=O)OCC)CC1.[Yb+3] [Yb(1)^3+] | 0.5 | 1.9 | 3 | 200 | 0.2 | τM^298 of bound water [9]: 5.8 μs
